Data from US20250092080A1, “FLEX-NUCLEOSIDE ANALOGUES, NOVEL THERAPEUTICS AGAINST VIRUSES” (priority 2022, published 2025).
“And” between values parts separate entries of the source, which are not always exact repeats. Equal values may be shown once. Read-outs that look alike come from different tables or passages of the source.

Legend:
Ebola Virus [1] = assay: microbe, parasite or virus in culture; assay type: cell-based, strain Zaire
in vitro [2] = assay: in vitro
Rubella Virus = Rubella Virus antiviral screening, A549; assay type: cell-based
Rift Valley Fever Virus = assay: microbe, parasite or virus in culture; assay type: cell-based
[3] = Cell viability in A549 (parallel to Rubella screening); assay type: cell-based; settings: human, A549 cells, RA-0001522
Dengue Virus 4 = assay: DENV4 antiviral activity (Tables 11-15); assay type: cell-based
Huh7 cells = settings: human
in vitro [4] = settings: human
Dengue Virus 2 [5] = assay: DENV2 antiviral activity (Tables 11-15); assay type: cell-based; settings: for IC50: DENV2
Ebola Virus [6] = assay: microbe, parasite or virus in culture; assay type: cell-based; settings: Zaire ebolavirus, Huh-7
SARS-CoV-2 (Omicron) = SARS-CoV-2 (Omicron) (Calu3) #1 antiviral activity; assay type: cell-based; settings: Severe acute respiratory syndrome coronavirus 2; Omicron strain in Calu-3 cells; lab #1
[7] = Cytotoxicity, A549 cells, lab #1; settings: human
SARS-CoV-2 (WA-1) = assay: SARS-CoV-2 (WA)(A549) #1 antiviral activity; assay type: cell-based; settings: Severe acute respiratory syndrome coronavirus 2; WA-1 strain in A549 cells; lab #1
in vitro [8] = settings: human; remark: listed apart in the source
SARS-CoV-2 = SARS-CoV-2 (A549) #2 antiviral activity; assay type: cell-based; settings: Severe acute respiratory syndrome coronavirus 2, lab #2
[9] = Cytotoxicity printed in the DENV4 lines (Tables 11-15); assay type: cell-based; settings: cells not given
[10] = Cytotoxicity, A549, lab #2; settings: human, A549 cells
[11] = system: Venezuelan Equine Encephalitis Virus; assay: microbe, parasite or virus in culture; assay type: cell-based
in vitro [12] = assay: in vitro; remark: listed apart in the source
Chikungunya Virus = assay: CHIKV antiviral activity (Tables 11-15); assay type: cell-based
[13] = Cytotoxicity printed in the CHIKV line (Table 11)
in vitro [14] = settings: human; remark: listed apart in the source
Epstein-Barr virus = assay: microbe, parasite or virus in culture; assay type: cell-based, strain Akata; settings: human gammaherpesvirus 4, Akata
Enterovirus-71 = assay: organism not typed; assay type: cell-based
Dengue Virus 2 [15] = assay: microbe, parasite or virus in culture; assay type: cell-based, strain New Guinea C; settings: Huh-7
MERS Coronavirus = assay type: cell-based, strain EMC
[16] = Cytotoxicity, Calu3 (WA test); assay type: cell-based; settings: human, Calu3 cells; Calu3 (WA lines)
SARS-CoV-2 (WA) = assay: SARS-CoV-2 (WA)(Calu3) antiviral activity; assay type: cell-based, WA strain; settings: Severe acute respiratory syndrome coronavirus 2, Calu-3

CNc1nc(N)ncc1-c1cn([C@@H]2O[C@H](COP(=O)(NC(C)C(=O)OC(C)C)Oc3ccccc3)C(O)C2(C)F)cn1 (stereo in doubt) [CDW3-002, propan-2-yl-(2S)-2-(((((2R,3R,4R,5R)-5-(4-(2-amino-4-(methylamino)pyrimidin-5-yl)-1H-imidazol-1-yl)-4-fluoro-3-hydroxy-4-methyloxolan-2-yl)methyl)(phenyl)phosphono)amino) propanoate]
EC50 (Ebola Virus [1]; Zaire ebolavirus, Vero, read-out: EC50): 30 µM
CC50 (in vitro [2]): > 100 µM
IC50 (Rubella Virus): 69.9 µM
IC90 (Rubella Virus): > 100 µM
IC50 (Rift Valley Fever Virus): 74.9 µM
IC90 (Rift Valley Fever Virus): > 100 µM
CC50 [3]: 97.2 µM

COc1ncc(-c2cn([C@@H]3O[C@H](CO[P@@](=O)(N[C@@H](C)C(=O)OC(C)C)Oc4ccccc4)[C@H](O)C3(C)F)cn2)c(OC)n1 (stereo partly shown) [CDW3-007]
IC50 (Dengue Virus 4; DENV4): > 50 µM
CC50 (Huh7 cells): > 200 µM
CC50 (in vitro [4]): 274 µM
IC50 (Dengue Virus 2 [5]): 45 µM

CC(C)OC(=O)[C@H](C)N[P@](=O)(OC[C@H]1O[C@@H](n2cnc(-c3cnc(N)nc3)c2)C(C)(F)[C@H]1O)Oc1ccccc1 (stereo partly shown) [CDW3-014]
inhibition at 50 µM (Dengue Virus 4; DENV4, read-out: % inhib): 27%
IC50 (Ebola Virus [6]): 10.5 µM
CC50 (in vitro [4]): 33.4 µM
inhibition at 50 µM (Dengue Virus 2 [5]; DENV2, read-out: % inhib): 13.6%

COc1ncc(-c2cn([C@@H]3O[C@H](CO[P@@](=O)(N[C@@H](C)C(=O)OC(C)C)Oc4ccccc4)[C@H](O[P@@](=O)(N[C@@H](C)C(=O)OC(C)C)Oc4ccccc4)C3(C)F)cn2)c(OC)n1 (stereo partly shown) [CDW3-015]
IC50 (Dengue Virus 4; DENV4): 16 µM
IC90 (Dengue Virus 4; DENV4): 26 µM
IC50 (SARS-CoV-2 (Omicron)): 19.7 µM
CC50 [7]: > 100 µM
IC50 (SARS-CoV-2 (WA-1)): 12.4 µM
IC50 (Ebola Virus [6]): 47 µM
CC50 (in vitro [8]): 1.74 µM
CC50 (in vitro [4]): > 200 µM
IC50 (SARS-CoV-2): 2.95 µM
CC50 [9]: > 100 µM

CNc1cc(-c2cncn2[C@@H]2O[C@H](CO[P@@](=O)(N[C@@H](C)C(=O)OC(C)C)Oc3ccccc3)[C@H](O[P@@](=O)(N[C@@H](C)C(=O)OC(C)C)Oc3ccccc3)C2(C)F)nc(N)n1 (stereo partly shown) [CEM-034]
IC50 (Dengue Virus 4; DENV4): 18 µM
CC50 [10]: 15.4 µM
IC50 (SARS-CoV-2 (Omicron)): 22.6 µM
EC50 [11]: 19.7 µM
CC50 [7]: 4.05 µM
CC50 (in vitro [12]): > 100 µM
IC50 (SARS-CoV-2 (WA-1)): 13.6 µM
IC50 (Ebola Virus [6]): 13.5 µM
EC50 (Chikungunya Virus): 19.9 µM
CC50 (in vitro [8]): 35.4 µM
CC50 (in vitro [4]): 85 µM
CC50 [13]: > 100 µM
IC50 (SARS-CoV-2): 6.47 µM
IC50 (Dengue Virus 2 [5]): 14 µM

Cc1ccc(-c2cn([C@@H]3C[C@@H](O)[C@H](CO)O3)c(=O)[nH]c2=O)s1 [CHK-03, 1-((2S,4R,5S)-4-hydroxy-5-(hydroxymethyl)tetrahydrofuran-2-yl)-5-(5-methylthiophen-2-yl)pyrimidine-2,4(1H,3H)-dione]
CC50 (in vitro [14]): > 100 µM
EC90 (Epstein-Barr virus): 18.7 µM
EC50 (Epstein-Barr virus; read-out: EC50): 2.97 µM

Nc1nc(=O)n([C@@H]2C[C@@H](O)[C@H](CO)O2)cc1-c1ccco1 [CHK-05, 4-amino-5-(furan-2-yl)-1-((2S,4R,5S)-4-hydroxy-5-(hydroxymethyl)tetrahydrofuran-2-yl)pyrimidin-2(1H)-one]
EC50 (Epstein-Barr virus; read-out: EC50): 69.9 µM
EC50 (Enterovirus-71): 24 µM
EC50 (Dengue Virus 2 [15]): 79 µM

Nc1ccn(C[C@@H](CO)OCP(=O)(O)O)c(=O)n1 [Cidofovir, reference compound]
CC50 (in vitro [14]): > 100 µM
EC50 (Epstein-Barr virus): 3.92 µM
EC90 (Epstein-Barr virus): 71.4 µM

O=c1nc(NO)ccn1[C@@H]1O[C@H](CO)[C@@H](O)[C@H]1O [EIDD-1931]
EC50 (MERS Coronavirus): 0.036 µg/mL and 0.034 µg/mL

NC(=O)c1nc(F)c[nH]c1=O [Favipiravir, reference compound]
EC50 (Ebola Virus [1]; Zaire ebolavirus, Vero): 12 µM

COc1nc(N)ncc1-c1cn(COCCO)cn1 [JT-001]
CC50 (in vitro [14]): > 100 µM
EC90 (Epstein-Barr virus): > 100 µM
EC50 (Epstein-Barr virus; read-out: EC50): 59.9 µM

COc1ncc(-c2cn(COCCO)cn2)c(OC)n1 [JT-004]
CC50 (in vitro [14]): > 100 µM
EC90 (Epstein-Barr virus): > 100 µM
EC50 (Epstein-Barr virus; read-out: EC50): 86.8 µM

CCC(CC)COC(=O)[C@H](C)NP(=O)(OCCOCn1cnc(-c2cnc(OC)nc2OC)c1)Oc1ccccc1 (stereo partly shown) [JT-005]
EC50 (Ebola Virus [1]; read-out: EC50): 12 µM
CC50 (Vero): > 100 µM

COc1ncc(-c2cn(COCCOC(C)=O)cn2)c(OC)n1 [JT-006]
CC50 (in vitro [14]): > 100 µM
EC90 (Epstein-Barr virus): > 100 µM
EC50 (Epstein-Barr virus; read-out: EC50): 79.9 µM

CCC(CC)COC(=O)[C@H](C)N[P@](=O)(OCCOCn1cncc1-c1cnc(OC)nc1OC)Oc1ccccc1 [JT-092]
CC50 [16]: > 100 µM
IC50 (SARS-CoV-2 (WA)): 82.8 µM
IC90 (SARS-CoV-2 (WA)): 172 µM
CC50 [7]: > 100 µM
IC50 (SARS-CoV-2 (WA-1)): 29.7 µM
IC90 (SARS-CoV-2 (WA-1)): 273 µM

CCC(=O)OCCOCn1cnc(-c2cnc(OC)nc2)c1 [JT-093]
IC50 (Dengue Virus 4; DENV4): > 50 µM
IC50 (Dengue Virus 2 [5]): 21 µM

CCC(CC)COC(=O)[C@H](C)N[P@](=O)(OCCOCn1cncc1-c1cnc(N)nc1OC)Oc1ccccc1 [JT-096]
IC50 (Dengue Virus 4; DENV4): > 42 µM
CC50 [16]: > 100 µM
IC50 (SARS-CoV-2 (WA)): 31.4 µM
IC90 (SARS-CoV-2 (WA)): 106 µM
CC50 [7]: 73.3 µM
IC50 (SARS-CoV-2 (WA-1)): 10.5 µM
IC90 (SARS-CoV-2 (WA-1)): 46.3 µM
IC50 (Ebola Virus [6]): 52 µM
CC50 (in vitro [4]): 28 µM
IC50 (Dengue Virus 2 [5]): > 28 µM
